Holding throughout (assay): inhibition of tumour cell growth, NCI panel, 48 h
The test system of test [1] is EKVX.
The subject of test [2] is A549.
Test [3] relates to HOP-92.
The subject of test [4] is SF-295.
Test [5] deals with HCT-116.
Test [6] has as its system SK-MEL-2.
Test [7] deals with COLO 205.
Test [8] concerns NCI/ADR-RES.
Test [9] has as its system MCF7.
The subject of test [10] is IGROV-1.
Test [11] has as its system PC-3.
Test [12] concerns BT-549.
Test [13] concerns RPMI-8226.
Test [14] deals with OVCAR-3.
Test [15] deals with SK-MEL-28.
In test [16] the test system is HT-29.
Test [17] has as its system DU-145.
Test [18] deals with OVCAR-5.
For test [19], the system named is SR.
Test [20] concerns OVCAR-8.

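Five compound concentrations were applied to cells in 96-well plates for 48 hours; endpoints were derived by simple linear interpolation of the resulting dose-response curve. GI50 = concentration required for 50% inhibition of growth.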 Active and inactive are the calls of the source. Rule as the data show it: active = GI50 up to about 1.1 µM and inactive = higher.

As to `Nc1ccc2c(c1)C(=O)N1CCC[C@H]1C(=O)N2`, the GI50 in [1], in test [2], in test [3], in test [4], in test [5] and in test [6] was > 100 µM (inactive) each time. The GI50 in test [7], in [8], in test [9], in test [10], in test [11] and in test [12] was > 100 µM (inactive) each time. In addition, the GI50 in test [13], in [14], in test [15], in test [16], in [17] and in test [18] was > 100 µM (inactive) throughout. For the same molecule, the GI50 in test [19] and in test [20] was > 100 µM (inactive) each time.

As for `COc1cc(S(=O)(=O)Nc2ccc(-c3csc(N4C(=O)CSC4c4ccccc4)n3)cc2)ccc1Cl` (stereo not given), the GI50 in test [1] was 20.6 µM (inactive); in test [2] it was 0.785 µM (active); in [3], 20.6 µM (inactive); in test [4], 96.6 µM (inactive); in test [5] it was 54 µM (inactive); in test [6] it was 37.2 µM (inactive). For the same molecule, the GI50 was 35.6 µM (inactive) in test [7]; > 100 µM (inactive) in test [8]; 22.6 µM (inactive) in [9]; 51.4 µM (inactive) in test [10]; 41.3 µM (inactive) in test [11]; 75.5 µM (inactive) in test [12]. The GI50 in [13] is 24.4 µM (inactive); in test [14] it was > 100 µM (inactive); in [15], 22.9 µM (inactive); in [16], 54.2 µM (inactive); in test [17] it was > 100 µM (inactive); in [18], > 100 µM (inactive). For the same molecule, the GI50 in test [19] is 32.3 µM (inactive); in test [20] it was > 100 µM (inactive).

With `CC(=O)NC(CC(C)C)C(=O)NC(CC(C)C)C(=O)NC(C=O)CCCNC(=N)N` (stereo not given), the GI50 in test [1], in [2], in test [3], in test [4], in test [5] and in test [6] was > 100 µM (inactive) each time. Further, the GI50 in test [7], in test [8], in test [9], in test [10], in [11] and in [12] was > 100 µM (inactive) in each case. Besides, the GI50 in [13], in [14], in [15], in test [16], in test [17] and in test [18] was > 100 µM (inactive) throughout. In addition, the GI50 in test [19] and in [20] was > 100 µM (inactive) in each case.

With `CCOC(=O)c1cc2c3c(cc(OC)c2[nH]1)N(C(=O)OCC)CC3`, the GI50 is 42.5 µM (inactive) in test [1]; > 100 µM (inactive) in [2]; > 100 µM (inactive) in test [3]; > 100 µM (inactive) in [4]; > 100 µM (inactive) in test [5]; > 100 µM (inactive) in [6]. The GI50 in test [7], in test [8], in test [9], in test [10], in test [11] and in [12] was > 100 µM (inactive) in each case. The GI50 in test [13], in test [14], in [15], in [16], in test [17] and in [18] was > 100 µM (inactive) in each case. For the same molecule, the GI50 in [19] is 86.1 µM (inactive); in test [20], > 100 µM (inactive).

In the case of `O=C(O)[C@@H]1CCCN1` [PROLINE], the GI50 in test [1], in test [2], in [3], in test [4], in [5] and in test [6] was > 100 µM (inactive) in each case. Besides, the GI50 in test [7], in test [8], in test [9], in [10], in test [11] and in test [12] was > 100 µM (inactive) in each case. Further, the GI50 in [13], in test [14], in test [15], in test [16], in [17] and in [18] was > 100 µM (inactive) throughout. Moreover, the GI50 in test [19] and in test [20] was > 100 µM (inactive) each time.

As to `Cc1cccc(-c2cc(O)c3cc(C)cnc3n2)c1`, the GI50 in [1] was 0.705 µM (active); in test [2], 0.279 µM (active); in test [3], 11.7 µM (inactive); in test [4] it was 0.148 µM (active); in test [5], 0.118 µM (active); in [6] it was 0.224 µM (active). Further, the GI50 in test [7] is 0.105 µM (active); in test [8], 0.122 µM (active); in test [9] it was 0.305 µM (active); in test [10], 0.54 µM (active); in test [11], 0.189 µM (active); in test [12], 0.292 µM (active). Besides, the GI50 is 0.239 µM (active) in [13]; 0.143 µM (active) in test [14]; 1.63 µM (inactive) in [15]; 0.15 µM (active) in test [16]; 0.279 µM (active) in [17]; 0.414 µM (active) in test [18]. For the same molecule, the GI50 in test [19] is 0.0368 µM (active); in test [20], 0.39 µM (active).

On to `CN(C)CCCC1c2ccccc2Oc2ccc(C(F)(F)F)cc21` (stereo not given), for which the GI50 in test [1] was 15.9 µM (inactive); in test [2], 14.9 µM (inactive); in test [3] it was 11.9 µM (inactive); in test [4], 16.5 µM (inactive); in test [5], 11.7 µM (inactive); in test [6], 14.6 µM (inactive). Also, the GI50 in [7] is 4.65 µM (inactive); in [8], 13.7 µM (inactive); in test [9], 12.7 µM (inactive); in test [10] it was 14 µM (inactive); in test [11] it was 13.7 µM (inactive); in [12], 14.2 µM (inactive). Further, the GI50 in test [13] is 8.2 µM (inactive); in test [14], 15.3 µM (inactive); in [15], 6.46 µM (inactive); in test [16] it was 5.28 µM (inactive); in test [17], 17.2 µM (inactive); in [18], 14.9 µM (inactive). For the same molecule, the GI50 in test [19] was 7.28 µM (inactive); in [20] it was 16.8 µM (inactive).

Turning to `N=C(N)NCCN1CCCCCc2ccccc21`, the GI50 was > 10 µM (inactive) in [1]; > 10 µM (inactive) in test [2]; 5.24 µM (inactive) in test [3]; > 10 µM (inactive) in test [4]; > 10 µM (inactive) in [5]; > 10 µM (inactive) in [6]. The GI50 in test [7] is > 10 µM (inactive); in test [8], > 10 µM (inactive); in [9] it was > 10 µM (inactive); in [10], > 10 µM (inactive); in [11] it was 7.26 µM (inactive); in [12], 7.08 µM (inactive). The GI50 in [13], in test [14], in test [15], in [16], in test [17] and in test [18] was > 10 µM (inactive) each time. In addition, the GI50 in [19] and in [20] was > 10 µM (inactive) throughout.

For `Brc1cccc(Nc2nc(-c3cccs3)nc3ccc(Br)cc23)c1`, the GI50 was 15 µM (inactive) in test [1]; 29.5 µM (inactive) in test [2]; 19.6 µM (inactive) in test [3]; 19.9 µM (inactive) in test [4]; 30.5 µM (inactive) in [5]; 32.1 µM (inactive) in test [6]. Further, the GI50 in test [7] is 33 µM (inactive); in [8] it was 30.7 µM (inactive); in [9] it was 14.2 µM (inactive); in [10], 26.7 µM (inactive); in test [11], 31.9 µM (inactive); in test [12] it was 80.9 µM (inactive). The GI50 was 44.9 µM (inactive) in test [13]; 16.1 µM (inactive) in test [14]; 25.2 µM (inactive) in [15]; 17.1 µM (inactive) in test [16]; 36.1 µM (inactive) in [17]; 25.2 µM (inactive) in test [18]. Moreover, the GI50 in test [19] was 1.48 µM (inactive); in [20], 47 µM (inactive).

As to `COc1ccc2nc3ccc(OC)cc3c(SCc3ccccc3)c2c1`, the GI50 in test [1] is > 100 µM (inactive); in test [2] it was > 82.4 µM (inactive); in test [3] it was > 100 µM (inactive); in [4], > 91 µM (inactive); in test [5] it was > 74 µM (inactive); in test [6], > 100 µM (inactive). Also, the GI50 in test [7] was > 86.3 µM (inactive); in [8], > 100 µM (inactive); in [9], > 55.3 µM (inactive); in [10], > 63.1 µM (inactive); in test [11], > 100 µM (inactive); in [12], > 100 µM (inactive). Moreover, the GI50 was 48.8 µM (inactive) in test [13]; > 100 µM (inactive) in [14]; > 85.7 µM (inactive) in test [15]; > 100 µM (inactive) in test [16]; > 100 µM (inactive) in [17]; > 100 µM (inactive) in test [18]. Moreover, the GI50 in test [19] is > 32.9 µM (inactive); in test [20], > 84.1 µM (inactive).

Values taken from ChEMBL document CHEMBL1201862, “PubChem BioAssay data set” (2004).
